Experiments:
[1] = biological target: T1, Porcine pancreatic α-amylase (Sus scrofa, UniProt P00690); test: In vitro α-amylase activity assay (starch/dinitrosalicylic acid); format: biochemical; settings: triplicate; ± SEM
T1 construct: α-amylase solution (Porcine pancreatic α-amylase); from tissue; host or cells: porcine pancreas (from the enzyme's name only)
T1 sequence (P00690 16-511): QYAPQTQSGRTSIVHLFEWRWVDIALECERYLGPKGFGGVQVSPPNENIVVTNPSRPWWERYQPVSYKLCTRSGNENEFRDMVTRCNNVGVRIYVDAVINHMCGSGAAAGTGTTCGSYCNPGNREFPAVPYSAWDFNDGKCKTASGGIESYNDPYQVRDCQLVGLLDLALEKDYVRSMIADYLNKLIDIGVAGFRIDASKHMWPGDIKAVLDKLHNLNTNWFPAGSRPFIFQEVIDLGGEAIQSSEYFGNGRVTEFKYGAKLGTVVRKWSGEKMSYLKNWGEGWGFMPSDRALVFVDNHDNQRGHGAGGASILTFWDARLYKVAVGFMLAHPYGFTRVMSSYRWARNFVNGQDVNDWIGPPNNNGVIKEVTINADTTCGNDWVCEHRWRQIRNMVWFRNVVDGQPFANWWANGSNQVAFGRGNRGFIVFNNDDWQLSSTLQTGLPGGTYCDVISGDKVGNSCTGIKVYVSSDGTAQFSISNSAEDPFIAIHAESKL
Description: α-Amylase inhibition was determined by an assay modified by Kwon, Apostolidis & Shetty. A total of 40 μL of sample and 40 μL of 0.02 M sodium phosphate buffer (pH 6.9 with 0.006 M sodium chloride) containing α-amylase solution (Porcine pancreatic α-amylase) (0.5 mg/mL) were incubated at 25 °C for 10 min. After pre-incubation, 40 μL of a 1% starch solution in 0.02 M sodium phosphate buffer (pH 6.9 with 0.006 M sodium chloride) was added to each tube at 5 s intervals. The reaction mixtures were then incubated at 25 °C for 10 min. The reaction was stopped with 100 μL of dinitrosalicylic acid color reagent. The test tubes were then incubated in a boiling water bath for 5 min and cooled to room temperature. The reaction mixture was then diluted after adding 900 μL of distilled water, and the absorbance was measured at 540 nm. […] All reactions were carried out in triplicate.

[2] = biological target: crude intestinal α-glucosidase; test: In vitro α-glucosidase activity assay (p-nitrophenyl-α-D-glucopyranoside substrate); format: biochemical; settings: triplicate; ± SEM
Description: The α-Glucosidase activity was determined by a slight modification to the already-reported method. In a 96-well microplate, 10 μL of test samples (5 mg/mL DMSO solution) were reconstituted in 100 μL of 100 mM-phosphate buffer (pH 6.8) and incubated with 50 μL of crude intestinal α-glucosidase for 5 min before 50 μL substrate (5 mM, p-nitrophenyl-α-D-glucopyranoside prepared in the same buffer) was added. The release of p-nitrophenol was measured at 405 nm spectrophotometrically for 5 min after incubation with the substrate. Individual blanks for test samples were prepared to correct background absorbance where the substrate was replaced with 50 μL of the buffer. The control sample contained 10 μL DMSO in place of the test samples. All reactions were carried out in triplicate.
The percentage of enzyme inhibition was calculated as (1 − B/A) × 100.
Where A represents the absorbance of control without test samples, and B represents absorbance in the presence of test samples.

Row | IC50 [1] [µM] | IC50 [2] [µM] | Compound
1 | 16.1 ± 0.01 | 14.2 ± 0.1 | O=[N+]([O-])c1ccccc1/C=N/NC(=S)NN=C(CSc1nc2ccccc2[nH]1)c1ccc(-c2ccccc2)cc1 [derivative 7, N′-(2-((1H-Benzo[d]imidazol-2-yl)thio)-1-([1,1′-biphenyl]-4-yl)ethylidene)-2-((E)-2-nitrobenzylidene)hydrazine-1-carbothiohydrazide]
2 | 15.2 ± 0.2 | 17.2 ± 0.1 | O=[N+]([O-])c1ccc(/C=N/NC(=S)NN=C(CSc2nc3ccccc3[nH]2)c2ccc(-c3ccccc3)cc2)cc1 [derivative 8, N′-(2-((1H-Benzo[d]imidazol-2-yl)thio)-1-([1,1′-biphenyl]-4-yl)ethylidene)-2-((E)-4-nitrobenzylidene)hydrazine-1-carbothiohydrazide]
3 | 13.1 ± 0.1 | 14.2 ± 0.2 | O=[N+]([O-])c1cccc(/C=N/NC(=S)NN=C(CSc2nc3ccccc3[nH]2)c2ccc(-c3ccccc3)cc2)c1 [derivative 9, N′-(2-((1H-Benzo[d]imidazol-2-yl)thio)-1-([1,1′-biphenyl]-4-yl)ethylidene)-2-((E)-3-nitrobenzylidene)hydrazine-1-carbothiohydrazide]
4 | 10.2 ± 0.02 | 11.2 ± 0.1 | Oc1ccc(/C=N/NC(=S)NN=C(CSc2nc3ccccc3[nH]2)c2ccc(-c3ccccc3)cc2)cc1 [derivative 10, N′-(2-((1H-Benzo[d]imidazol-2-yl)thio)-1-([1,1′-biphenyl]-4-yl)ethylidene)-2-((E)-4-hydroxybenzylidene)hydrazine-1-carbothiohydrazide]
5 | 3.1 ± 0.1 | 4.2 ± 0.1 | O=[N+]([O-])c1ccccc1/C=N/NC(=S)NN=C(CSc1nc2ccccc2[nH]1)c1ccc(Cl)c(Cl)c1 [derivative 11, N′-(2-((1H-Benzo[d]imidazol-2-yl)thio)-1-(3,4-dichlorophenyl)ethylidene)-2-((E)-2-nitrobenzylidene)hydrazine-1-carbothiohydrazide]
6 | 1.1 ± 0.2 | 2.2 ± 0.2 | Oc1ccc(/C=N/NC(=S)NN=C(CSc2nc3ccccc3[nH]2)c2ccc(Cl)c(Cl)c2)cc1 [derivative 12, N′-(2-((1H-Benzo[d]imidazol-2-yl)thio)-1-(3,4-dichlorophenyl)ethylidene)-2-((E)-4-hydroxybenzylidene)hydrazine-1-carbothiohydrazide]
7 | 2.1 ± 0.2 | 3.1 ± 0.2 | O=[N+]([O-])c1ccc(/C=N/NC(=S)NN=C(CSc2nc3ccccc3[nH]2)c2ccc(Cl)c(Cl)c2)cc1 [derivative 13, N′-(2-((1H-Benzo[d]imidazol-2-yl)thio)-1-(3,4-dichlorophenyl)ethylidene)-2-((E)-4-nitrobenzylidene)hydrazine-1-carbothiohydrazide]
8 | 6.1 ± 0.2 | 7.1 ± 0.01 | O=[N+]([O-])c1cccc(/C=N/NC(=S)NN=C(CSc2nc3ccccc3[nH]2)c2ccc(Cl)c(Cl)c2)c1 [derivative 14, N′-(2-((1H-Benzo[d]imidazol-2-yl)thio)-1-(3,4-dichlorophenyl)ethylidene)-2-((E)-3-nitrobenzylidene)hydrazine-1-carbothiohydrazide]
9 | 17.1 ± 0.01 | 18.1 ± 0.2 | O=[N+]([O-])c1ccccc1/C=N/NC(=S)NN=C(CSc1nc2ccccc2[nH]1)c1ccc(Br)cc1 [derivative 15, N′-(2-((1H-Benzo[d]imidazol-2-yl)thio)-1-(4-bromophenyl)ethylidene)-2-((E)-2-nitrobenzylidene)hydrazine-1-carbothiohydrazide]
10 | 20.1 ± 0.2 | 21.1 ± 0.01 | Oc1ccc(/C=N/NC(=S)NN=C(CSc2nc3ccccc3[nH]2)c2ccc(Br)cc2)cc1 [derivative 16, N′-(2-((1H-Benzo[d]imidazol-2-yl)thio)-1-(4-bromophenyl)ethylidene)-2-((E)-4-hydroxybenzylidene)hydrazine-1-carbothiohydrazide]
11 | 15.1 ± 0.2 | 16.1 ± 0.01 | O=[N+]([O-])c1ccc(/C=N/NC(=S)NN=C(CSc2nc3ccccc3[nH]2)c2ccc(Br)cc2)cc1 [derivative 17, N′-(2-((1H-Benzo[d]imidazol-2-yl)thio)-1-(4-bromophenyl)ethylidene)-2-((E)-4-nitrobenzylidene)hydrazine-1-carbothiohydrazide]
12 | 13.2 ± 0.2 | 14.1 ± 0.01 | O=[N+]([O-])c1cccc(/C=N/NC(=S)NN=C(CSc2nc3ccccc3[nH]2)c2ccc(Br)cc2)c1 [derivative 18, N′-(2-((1H-Benzo[d]imidazol-2-yl)thio)-1-(4-bromophenyl)ethylidene)-2-((E)-3-nitrobenzylidene)hydrazine-1-carbothiohydrazide]
13 | 1.2 ± 0.2 | 1.3 ± 0.2 | Fc1cccc(/C=N/NC(=S)N/N=C(\CSc2nc3ccccc3[nH]2)c2cccc(F)c2)c1 [derivative 19]
14 | 21.1 ± 0.01 | 22.1 ± 0.2 | O=[N+]([O-])c1cccc(/C=N/NC(=S)N/N=C(\CSc2nc3ccccc3[nH]2)c2ccccc2)c1 [derivative 21, N′-((Z)-2-((1H-Benzo[d]imidazol-2-yl)thio)-1-phenylethylidene)-2-((E)-3-nitrobenzylidene)hydrazine-1-carbothiohydrazide]

Row | Compound | IC50 [1] [µM] | IC50 [2] [µM]
15 | N′-((Z)-2-((1H-Benzo[d]imidazol-2-yl)thio)-1-(3-fluorophenyl)ethylidene)-2-((E)-2-methyl-4-nitrobenzylidene)hydrazine-1-carbothiohydrazide [derivative 20] | 1.4 ± 0.01 | 1.6 ± 0.2
